Seven compounds from PubChem BioAssay (NCI) can be followed below.

What all share (experiment): NCI tumour cell line growth inhibition, 48 h
The test system of assay [1] is U251 CNS.
Assay [2] relates to HCT-116 colon.
Assay [3] has as its system K-562 leukemia.
For assay [4], the system named is UACC-62 melanoma.
Assay [5] relates to OVCAR-4 ovarian.
Assay [6] deals with T-47D breast.
Assay [7] deals with CCRF-CEM leukemia.
Assay [8] relates to NCI-H23 lung.
Assay [9] has as its system SN12C renal.
In assay [10] the test system is UACC-257 melanoma.

Each structure is given as a SMILES string.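 Tested at 5 concentrations; 48 h exposure; 96-well plates; endpoints linearly interpolated, else capped at highest concentration. At the GI50, growth is halved. At the TGI there is no net growth.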 Where only a bound is given, the exact number is not on record here.

For the compound `Oc1c(Cl)cc(Cl)cc1/C=N/Nc1nnc(N/N=C/c2cc(Cl)cc(Cl)c2O)c2ccccc12`, the GI50 is 0.345 µM in assay [1]; 0.433 µM in assay [2]; 0.372 µM in assay [3]; 0.318 µM in assay [4]; 0.388 µM in assay [5]; 0.506 µM in [6]. In addition, the GI50 was 0.275 µM in assay [7], 0.406 µM in assay [8], 0.543 µM in [9] and 1.44 µM in [10]. The TGI was more than 52.6 µM in assay [1]; more than 100 µM in assay [2]; more than 100 µM in assay [3]; 1.71 µM in assay [4]; more than 100 µM in [5]; more than 100 µM in assay [6]. The TGI in assay [8], in assay [9] and in [10] was more than 100 µM each time.

With `CN(C)CC(=O)Nc1ccc2ncnc(Nc3ccc(Oc4cccc(C(F)(F)F)c4)c(Cl)c3)c2c1`, the GI50 in [1] was 1.79 µM; in [2], 1.65 µM; in assay [3] it was 2.21 µM; in [4], 1.91 µM; in assay [5] it was 1.96 µM; in assay [6], 1.31 µM. Further, the GI50 in [7] was 2.52 µM; in [8], 3.79 µM; in assay [9], 2.85 µM; in [10], 2.05 µM. Also, the TGI in assay [1] was determined as 3.99 µM; in assay [2] it was 3.03 µM; in assay [3], 6.52 µM; in assay [4] it was 3.69 µM; in assay [5], 5.83 µM; in assay [6], 3.74 µM. For the same compound, the TGI in assay [7] was determined as 10.4 µM; in [8], 14.8 µM; in assay [9], 10.5 µM; in [10] it was 4.25 µM.

For `O=C(C=P(c1ccccc1)(c1ccccc1)c1ccccc1)CCl`, the GI50 in [1] is 1.58 µM; in assay [2] it was 0.416 µM; in [3] it was 0.844 µM; in assay [4] it was 1.14 µM; in [5] it was 0.488 µM; in assay [6], 1.04 µM. The GI50 was 0.826 µM in assay [7], 0.811 µM in [8], 1.46 µM in assay [9] and 1.14 µM in assay [10]. The TGI in [1] was found to be 3.7 µM; in assay [2], 1.6 µM; in assay [3], 9.12 µM; in assay [4] it was 2.88 µM; in assay [5], 2.2 µM; in assay [6], 2.99 µM. Also, the TGI in assay [7] turned out to be 7.41 µM; in assay [8], 4.83 µM; in [9], 4.53 µM; in [10] it was 2.59 µM.

As for `CCOC(=O)C1=C(C)NC(=O)NC1CN1C(=O)c2ccccc2C1=O` (centres undefined), the GI50 in assay [1], in [2], in [3], in assay [4], in assay [5] and in assay [6] was more than 100 µM in each case. For the same compound, the GI50 in assay [7], in assay [8], in assay [9] and in assay [10] was more than 100 µM each time. Also, the TGI in [1], in assay [2], in assay [3], in [4], in assay [5] and in [6] was more than 100 µM each time. Also, the TGI in assay [7], in assay [8], in assay [9] and in [10] was more than 100 µM each time.

`N#Cc1c(NC(=O)c2ccc(F)cc2)sc2c1CCCC2`: the GI50 in assay [1], in assay [2], in assay [3], in [4], in assay [5] and in assay [6] was more than 25 µM throughout. Further, the GI50 in assay [7], in assay [8], in assay [9] and in [10] was more than 25 µM in each case. The TGI in assay [1], in assay [2], in assay [3], in assay [4], in [5] and in assay [6] was more than 25 µM in each case. For the same compound, the TGI in [7], in assay [8], in assay [9] and in [10] was more than 25 µM throughout.

With `COc1ccc(C(=NN=C(N)N)c2ccc(OC)cc2)cc1`, the GI50 in assay [1] was 3.72 µM; in assay [2], 3.15 µM; in [3] it was 3.7 µM; in assay [4], 3.54 µM; in [5], 3.46 µM; in assay [6] it was 3.21 µM. For the same compound, the GI50 in assay [7] was 5.18 µM; in assay [8] it was 3.87 µM; in [9], 3.15 µM; in assay [10] it was 7.24 µM. Further, the TGI in assay [1] was 14.1 µM; in assay [2] it was 12.4 µM; in assay [3] it was 15.4 µM; in [4], 14.1 µM; in [5], 16.4 µM; in [6], 15.1 µM. The TGI in [7] turned out to be 42.6 µM; in assay [8], 17.8 µM; in [9], 15.5 µM; in [10], 25.1 µM.

Turning to `N#CC1=C(N)NC(=S)NC12Nc1ccccc1S2` (centres undefined), the GI50 in assay [1] is 21.4 µM; in assay [2], more than 100 µM; in assay [3] it was 30.3 µM; in assay [4], 19.7 µM; in assay [5], 81.4 µM; in [6] it was 29.9 µM. The GI50 in assay [7] was 15.1 µM; in assay [8], 31.4 µM; in [9], 20.5 µM; in assay [10], 29 µM. Also, the TGI is 79.8 µM in [1]; more than 100 µM in assay [2]; more than 100 µM in assay [3]; 55.8 µM in assay [4]; more than 100 µM in assay [5]; more than 100 µM in assay [6]. Also, the TGI is 53.3 µM in [7], more than 100 µM in [8], 63.6 µM in assay [9] and more than 100 µM in assay [10].
